Each structure is given as a SMILES string.

For this assay, the target named is T1, hROMK (hKir1.1) (Homo sapiens, UniProt P48048).
T1 construct: expressed in transfected cells
T1 sequence (P48048 1-391): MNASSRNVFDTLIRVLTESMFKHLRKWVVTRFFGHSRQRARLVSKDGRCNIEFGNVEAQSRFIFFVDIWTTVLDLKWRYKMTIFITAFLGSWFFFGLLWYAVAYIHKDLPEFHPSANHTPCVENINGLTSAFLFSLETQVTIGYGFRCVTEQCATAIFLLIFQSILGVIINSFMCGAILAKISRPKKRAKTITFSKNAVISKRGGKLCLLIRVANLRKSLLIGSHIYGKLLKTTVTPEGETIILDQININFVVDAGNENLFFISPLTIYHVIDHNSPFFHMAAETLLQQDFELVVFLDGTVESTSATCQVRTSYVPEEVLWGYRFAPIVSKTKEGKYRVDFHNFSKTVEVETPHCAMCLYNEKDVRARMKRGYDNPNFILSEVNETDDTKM
The assay is described as follows: Thallium Flux Assay (ROMK channel functional thallium flux assay, FLIPR-Tetra). In kind it is cell-based. The settings on record: HEK293 cells stably expressing hROMK (hKir1.1); FluxOR thallium flux, 30 min compound incubation; concentration inhibiting 50% of ROMK thallium flux signal. On the procedure: The following Thallium Flux Assay was performed on each of the final product compounds in the Examples.
HEK293 cells stably expressing hROMK (hKir1.1) were grown at 37° C. in a 10% CO2 humidified incubator in complete growth media: Dulbecco's Modified Eagle Medium supplemented with non-essential amino acids, Penicillin/Streptomycin/Glutamine, G418 and FBS. At >80% confluency, the media was aspirated from the flask and rinsed with 10 mL calcium/magnesium-free phosphate buffered saline (PBS). 5 mL of 1× trypsin (prepared in Ca/Mg Free PBS) was added to T-225 flask and the flask was returned to 37° C./CO2 incubator for 2-3 minutes. To dislodge the cells, the side of the flask was gently banged with one's hand. The cells were completely titrated and then the cells were transferred to 25 mL complete media, centrifuged at 1,500 rpm for 6 min followed by resuspension in complete growth media, and the cell concentration was determined. For typical re-seeding, 4E6 cells/T-225 flask will attain >80% confluency in 4 days. Under ideal growth conditions and appropriate tissue culture practices, this cell line is stable for 40-45 passages.
Compound Buffer (per microplate): 20 mL Probenecid/Assay Buffer; 0.3 mM ouabain (10 mM ouabain in water can be stored in amber bottle/aluminum foil at room temperature); Test compound
Stimulant Buffer (prepared at 5× final concentration in 1× FluxOR™Chloride-Free Buffer): 7.5 mM thallium sulfate and 0.75 mM potassium sulfate (to give a final assay concentration of 3 mM Thallium/0.3 mM potassium). Store at 4° C. when not in use. If kept sterile, this solution is good for months.
The ROMK channel functional thallium flux assay was performed in 384 wells, using the FLIPR-Tetra instrument. HEK-hKir1.1 cells were seeded in Poly-D-Lysine microplates and kept in a 37° C.-10% CO2 incubator overnight. On the day of the experiment, the growth media was replaced with the FluxOR™ reagent loading buffer and incubated, protected from light, at ambient temperature (23-25° C.) for 90 min. The loading buffer was replaced with assay buffer±test compound followed by 30 min incubation at ambient temperature, where the thallium/potassium stimulant was added to the microplate.
• 1. Seed HEK-hKir1.1 cells (50 μl at 20,000 cells/well) in 384-well PDL coated Microplates • 2. Allow cells to adhere overnight in humidified 37° C./10% CO2 incubator • 3. Completely remove cell growth media from microplate and replace with 25 μl loading buffer • 4. Incubate Microplate at room temperature, protected form light, for 90 min • 5. Remove loading buffer and replace with 25 μl 1× Assay Buffer±test compound. • 6. Incubate microplate at room temperature, protected from light, for 30 min • 7. At FLIPR-Tetra 384: Add stimulant (thallium/potassium) solution to microplate and monitor fluorescence. Excitation=400 nm, Emission=460 & 580 nm. Collect data for ˜10 min.
The fluorescence intensity of wells containing 3 μM of a standard control ROMK inhibitor of the present invention was used to define the ROMK-sensitive component of thallium flux. Fluorescence in the presence of test compounds was normalized to control values to provide % fluorescence change. IC50 values represent the concentration of compound that inhibited 50% of the ROMK thallium flux signal.
Regarding `Cc1c([C@@H](O)CN2CCC3(CC2)CCN(c2cnc4nonc4c2)C3)ccc2c1COC2=O` [Example 92, (R)-5-(2-(2-([1,2,5]oxadiazolo[3,4-b]pyridin-6-yl)-2,8-diazaspiro[4.5]decan-8-yl)-1-hydroxyethyl)-4-methylisobenzofuran-1(3H)-one], the IC50 (usually the concentration at which inhibition is half-maximal) stood at 27.3 nM.

For `COc1cc([C@H](CN2CCC3(CC2)CCN(c2ccc4nncn4n2)C3)OC(C)=O)ncc1C#N` [Example 23, (S)-2-(2-([1,2,4]triazolo[4,3-β]pyridazin-6-yl)-2,8-diazaspiro[4.5]decan-8-yl)-1-(5-cyano-4-methoxypyridin-2-yl)ethyl acetate], 108 nM corresponded to half-maximal inhibition (IC50).

In turn, `Cc1c([C@@H](O)CN2CCC3(CC2)CCN(c2ccc4nncn4n2)C3=O)ccc2c1COC2=O` [Example 74] returned an IC50 of 116 nM.

Molecule `Cc1c([C@@H](O)CN2CCC3(CC2)CCN(c2cc4cncnc4s2)C3=O)ccc2c1COC2=O` [Example 36] showed an IC50 of 190 nM.

With `Cc1c([C@@H](O)CN2CCC3(CC2)CC(=O)N(c2ccc4nonc4n2)C3)ccc2c1COC2=O` [Example 93], the IC50 came to 274 nM.

The molecule `N#Cc1ccc(C(O)CN2CCC3(CC2)CC(=O)N(c2ccc4nncn4n2)C3)nc1` (centres unmarked) [Example 59] returned an IC50 of 412 nM.

Molecule `Cc1c([C@@H](O)CN2CCC3(CC2)CCN(c2snc4ccccc24)C3=O)ccc2c1COC2=O` [Example 82] yielded an IC50 of 32.6 nM.

Take `Cc1c([C@@H](O)CN2CCC3(CC2)CCN(c2snc4ncccc24)C3)ccc2c1COC2=O` [Example 27, (R)-5-(1-hydroxy-2-(2-(isothiazolo[3,4-b]pyridin-3-yl)-2,8-diazaspiro[4.5]decan-8-yl)ethyl)-4-methylisobenzofuran-1(3H)-one]: the IC50 stood at 317 nM.

The molecule `COc1cc([C@H](O)CN2CCC3(CC2)CCN(c2ccc4c(c2C)COC4=O)C3)ncc1C#N` [Example 77, (R)-6-(1-hydroxy-2-(2-(4-methyl-1-oxo-1,3-dihydroisobenzofuran-5-yl)-2,8-diazaspiro[4.5]decan-8-yl)ethyl)-4-methoxynicotinonitrile] displayed an IC50 of 66.4 nM.

Regarding `Cc1c([C@@H](O)CN2CCC3(CC2)CCN(c2nccn4ccnc24)C3)ccc2c1COC2=O` [Example 91], inhibition was half-maximal at 699 nM (IC50).

Molecule `CCc1nnc2ccc(N3CCC4(CCN(C[C@H](O)c5ccc6c(c5C)COC6=O)CC4)C3)nn12` [Example 16] registered an IC50 of 97.8 nM.

The molecule `Cc1cc(C#N)cnc1C(O)CN1CCC2(CC1)CCN(c1ccc3nncn3n1)C2` (centres unmarked) [Example 48] came in with an IC50 of 88.1 nM.

Molecule `Cc1c([C@@H](O)CN2CCC3(CC2)CCN(c2ncc4c(C)n[nH]c4n2)C3)ccc2c1COC2=O` [Example 17] displayed an IC50 of 486 nM.

On to `Cc1c(C(O)CN2CCC3(CC2)CCN(c2ccc4nncn4n2)C3)ccc(C#N)c1F` (racemic) [Example 53], for which the half-maximal inhibitory concentration (IC50) was 18.7 nM.

In turn, `Cc1cc(C#N)cnc1C(O)CN1CCC2(CCN(c3ccc4nncn4n3)CC2)C1` (centres unmarked) [Example 65, 6-(2-(8-([1,2,4]triazolo[4,3-b]pyridazin-6-yl)-2,8-diazaspiro[4.5]decan-2-yl)-1-hydroxyethyl)-5-methylnicotinonitrile] had an IC50 of 34.7 nM.

Regarding `Cc1c([C@@H](O)CN2CCC3(CC2)CCN(c2cc4cncnc4s2)C3)ccc2c1COC2=O` [Example 28, (R)-5-(1-Hydroxy-2-(2-(thieno[2,3-d]pyrimidin-6-yl)-2,8-diazaspiro[4.5]decan-8-yl)ethyl)-4-methylisobenzofuran-1 (3H)-one], half-maximal inhibition (IC50) was put at 261 nM.

Molecule `COc1cc([C@@H](O)CN2CCC3(CC2)CCN(c2nn4cnnc4s2)C3)ncc1C#N` [Example 72] registered an IC50 of 250 nM.

Regarding `COc1cc([C@@H](O)CN2CCC3(CC2)CCN(c2ccc4nncn4n2)C3)ncc1C#N` [Example 45, 6-(2-(2-([1,2,4]triazolo[4,3-b]pyridazin-6-yl)-2,8-diazaspiro[4.5]decan-8-yl)-1-hydroxyethyl)-4-methoxynicotinonitrile], the IC50 is 45.9 nM.

The molecule `Cc1c([C@@H](O)CN2CCC3(CC2)CCN(c2ccnc4c2OCO4)C3=O)ccc2c1COC2=O` [Example 38, (R)-2-([1,3]dioxolo[4,5-b]pyridin-7-yl)-8-(2-hydroxy-2-(4-methyl-1-oxo-1,3-dihydroisobenzofuran-5-yl)ethyl)-2,8-diazaspiro[4.5]decan-1-one] yielded an IC50 of 54.9 nM.

`Cc1cc(C#N)cnc1C(O)CN1CCC2(CCN(c3ccc4nncn4n3)CC2)C1` (centres unmarked) [Example 66]: 72.8 nM corresponded to half-maximal inhibition (IC50).

The molecule `Cc1c([C@@H](O)CN2CCC3(CC2)CCN(c2ccc4c(c2C)COC4=O)C3)ccc2c1COC2=O` [Example 79, (R)-5-(1-hydroxy-2-(2-(4-methyl-1-oxo-1,3-dihydroisobenzofuran-5-yl)-2,8-diazaspiro[4.5]decan-8-yl)ethyl)-4-methylisobenzofuran-1(3H)-one] returned an IC50 of 19 nM.

Molecule `Cc1c([C@@H](O)CN2CCC3(CC2)CCN(c2ccc4nnnn4n2)C3)ccc2c1COC2=O` [Example 10, (R)-5-(1-hydroxy-2-(2-(tetrazolo[1,5-b]pyridazin-6-yl)-2,8-diazaspiro[4.5]decan-8-yl)ethyl)-4-methylisobenzofuran-1(3H)-one] yielded an IC50 of 12.8 nM.

`Cc1c([C@@H](O)CN2CCC3(CC2)CCN(C2=Nc4ccccc4C4=NCCN42)C3)ccc2c1COC2=O` [Example 7] yielded an IC50 of 620 nM.

`Cc1c([C@@H](O)CN2CCC3(CC2)CCN(c2ccn4cncc4c2)C3=O)ccc2c1COC2=O` [Example 87] returned a concentration for half-maximal inhibition (IC50) of 260 nM.

`Cc1c([C@@H](O)CN2CCC3(CC2)CCN(c2ccc4nsnc4c2)C3)ccc2c1COC2=O` [Example 25, (R)-5-(2-(2-(benzo[c][1,2,5]thiadiazol-5-yl)-2,8-diazaspiro[4.5]decan-8-yl)-1-hydroxyethyl)-4-methylisobenzofuran-1 (3H)-one] displayed an IC50 of 342 nM.

`COc1cc([C@H](O)CN2CCC3(CC2)CCN(c2ccc4nncn4n2)C3)ncc1C#N` [Example 44] came in with a half-inhibitory concentration (IC50) of 124 nM.

Molecule `Cc1nc(C(O)CN2CCC3(CC2)CCN(c2ccc4nncn4n2)C3)ccc1C#N` (centres unmarked) [Example 47] had a half-inhibitory concentration (IC50) of 147 nM.

In the case of `Cc1c([C@@H](O)CN2CCC3(CC2)CC(=O)N(c2cnn4ncccc24)C3)ccc2c1COC2=O` [Example 41], the half-inhibitory concentration (IC50) is 336 nM.

For the molecule `Cc1c([C@@H](O)CN2CCC3(CC2)CCN(c2snc4ncccc24)C3=O)ccc2c1COC2=O` [Example 84], the half-maximal inhibitory concentration (IC50) came to 57.1 nM.

For the molecule `COc1cc(C(O)CN2CCC3(CC2)CCN(c2ccc4nncn4n2)C3)ccc1C#N` (centres unmarked) [Example 51], the IC50 was 48.7 nM.

For `COc1cc(C(O)CN2CCC3(CC2)CCN(c2ccc4nncn4n2)C3)ccc1C#N` (centres unmarked) [Example 50], the IC50 was determined as 41.5 nM.

`Cc1c([C@@H](O)CN2CCC3(CC2)CCN(c2nc4cc(F)ccc4o2)C3)ccc2c1COC2=O` [Example 4] registered an IC50 of 779 nM.

With `COC1OC(=O)c2ccc(N3CCC4(CCN(C[C@H](O)c5ccc6c(c5C)COC6=O)CC4)C3)cc21` (stereo partly drawn) [Example 26, 5-((1R)-1-hydroxy-2-(2-(3-methoxy-1-oxo-1,3-dihydroisobenzofuran-5-yl)-2,8-diazaspiro[4.5]decan-8-yl)ethyl)-4-methylisobenzofuran-1(3H)-one], half-maximal inhibition (IC50) was put at 199 nM.

In the case of `Cc1c([C@@H](O)CN2CCC3(CC2)CCN(c2cc4ccncc4s2)C3=O)ccc2c1COC2=O` [Example 32], the IC50 turned out to be 48.8 nM.

`COc1cc([C@H](O)CN2CCC3(CCN(c4ccc5nncn5n4)CC3)C2)ncc1C#N` [Example 64]: it took 91.8 nM to reach half-maximal inhibition (IC50).
